Test results reported in patent US11564923B2, “Compounds and pharmaceutical compositions thereof for the treatment of inflammatory disorders” (Galapagos NV, priority 2017, dated 2023).

Tests used:
Format in all cases: biochemical
[1] = molecular target: Recombinant human JAK3 catalytic domain (amino acids 781-1124) (Homo sapiens, UniProt P52333); test: JAK3 inhibition assay
Outline: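 Radiometric kinase reaction run 45 min at 30° C., stopped with phosphoric acid; activity as vehicle cpm minus 10 μM staurosporine cpm.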

[2] = molecular target: T1, Recombinant human TYK2 catalytic domain (amino acids 871-1187) (Homo sapiens, UniProt P29597); test: TYK2 radioactive assay polyGT substrate; note: 0.1 µM ATP
T1 construct: catalytic domain (amino acids 871-1187)
T1 sequence (P29597 871-1187): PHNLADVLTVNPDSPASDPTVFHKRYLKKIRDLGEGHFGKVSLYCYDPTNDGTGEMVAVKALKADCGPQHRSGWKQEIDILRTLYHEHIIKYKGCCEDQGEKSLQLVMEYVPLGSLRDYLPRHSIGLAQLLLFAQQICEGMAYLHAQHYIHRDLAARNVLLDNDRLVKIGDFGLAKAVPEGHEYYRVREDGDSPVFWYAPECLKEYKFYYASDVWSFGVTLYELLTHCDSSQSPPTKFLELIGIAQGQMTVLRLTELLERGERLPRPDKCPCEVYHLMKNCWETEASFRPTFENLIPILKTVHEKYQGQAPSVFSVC
Outline: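 Reaction at 30° C. for 120 min, ended with 150 mM phosphoric acid, washed, counted; percent inhibition scaled between vehicle and 10 μM staurosporine cpm.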

[3] = molecular target: T1, Recombinant human TYK2 catalytic domain (amino acids 871-1187); test: TYK2 ADPglo kinase assay; note: 12 µM ATP
Protocol: After 120 min at room temperature, reactions were stopped and the remaining ATP is depleted by adding 5 μL/well of ADP Glo Reagent (Promega, catalog number V912B). After 40 min at room temperature, 10 μl Kinase Detection Reagent (Kinase Detection Substrate (Promega, catalog number V914B) dissolved in Kinase Detection Buffer (Promega, catalog number V913B)) is added to convert ADP to ATP and to measure this newly synthesized ATP in a luciferase/luciferin reaction. Readout is performed after 30 min incubation at room temperature using the Envision. Kinase activity is calculated by subtracting the relative light units (RLU) obtained in the presence of a positive control inhibitor (10 μM staurosporine) from the RLU obtained in the presence of vehicle. The ability of a test compound to inhibit this activity (or percentage inhibition) is determined as:
RLU test compound=RLU determined for sample with test compound present
RLU control=RLU determined for sample with positive control inhibitor
RLU vehicle=RLU determined in the presence of vehicle
Dose dilution series were prepared for the compounds enabling the testing of dose-response effects in the TYK2 assay and the calculation of the IC50 for the compound. Each compound is routinely tested at concentration of 20 μM followed by a 1/5 serial dilution, 10 points in a final concentration of 1% DMSO. […] The data are expressed as the average IC50 from the assays.

Sequence of Recombinant human JAK3 catalytic domain (amino acids 781-1124) (P52333 781-1124): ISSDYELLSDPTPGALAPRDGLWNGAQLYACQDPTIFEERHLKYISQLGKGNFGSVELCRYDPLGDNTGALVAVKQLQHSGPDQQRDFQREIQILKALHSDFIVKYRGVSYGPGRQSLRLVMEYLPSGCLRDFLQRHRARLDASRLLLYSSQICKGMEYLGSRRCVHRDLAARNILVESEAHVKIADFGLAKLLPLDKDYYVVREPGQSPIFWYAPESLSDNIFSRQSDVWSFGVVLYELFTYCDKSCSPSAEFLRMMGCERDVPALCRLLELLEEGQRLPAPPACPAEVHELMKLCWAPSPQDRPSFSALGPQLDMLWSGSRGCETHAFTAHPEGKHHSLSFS

Compound	IC50 [1]	IC50 [2]	IC50 [3]
Cc1cc(C(F)(F)F)ncc1Oc1cc(Nc2cc(N)ncn2)c2ncn(C)c2n1 [Compound 1, N-[3-Methyl-5-(4-methyl-6-trifluoromethyl-pyridin-3-yloxy)-3H-imidazo[4,5-b]pyridin-7-yl]-pyrimidine-4,6-diamine]	1490 nM	10.1 nM	–
Cc1cc(C#N)ncc1Nc1cc(Nc2ccc(C(=O)N(C)C)cn2)c2ncn(C)c2n1 [Compound 67, 6-[[5-[(6-cyano-4-methyl-3-pyridyl)amino]-3-methyl-imidazo[4,5-b]pyridin-7-yl]amino]-N,N-dimethyl-pyridine-3-carboxamide]	258 nM	3.38 nM	–
Cc1cc(C#N)ncc1Oc1cc(Nc2ccc(S(=O)(=O)C(F)F)cc2)c2ncn(C)c2n1 [Compound 68, 5-[7-[4-(difluoromethylsulfonyl)anilino]-3-methyl-imidazo[4,5-b]pyridin-5-yl]oxy-4-methyl-pyridine-2-carbonitrile]	2760 nM	15.7 nM	–
Cc1cc(C#N)ncc1Oc1cc(Nc2ccc(S(=O)(=O)C3CC3)cc2)c2ncn(C)c2n1 [Compound 69, 5-[7-(4-cyclopropylsulfonylanilino)-3-methyl-imidazo[4,5-b]pyridin-5-yl]oxy-4-methyl-pyridine-2-carbonitrile]	1310 nM	6.07 nM	–
Cc1cc(C#N)ncc1N(c1cc(Nc2cc(N)ncn2)c2ncn(C)c2n1)C1CC1 [Compound 88, 5-[[7-[(6-aminopyrimidin-4-yl)amino]-3-methyl-imidazo[4,5-b]pyridin-5-yl]-cyclopropyl-amino]-4-methyl-pyridine-2-carbonitrile]	189 nM	0.52 nM	0.11 nM
Cn1cnc2c(Nc3ccc(S(C)(=O)=O)cn3)cc(NC(C3CC3)C(F)(F)F)nc21 (stereo not shown) [Compound 92, N5-(1-cyclopropyl-2,2,2-trifluoro-ethyl)-3-methyl-N7-(5-methylsulfonyl-2-pyridyl)imidazo[4,5-b]pyridine-5,7-diamine]	13 nM	1 nM	0.58 nM
CC(C)C(Nc1cc(Nc2cc(N)ncn2)c2ncn(C)c2n1)C(F)(F)F (stereo not shown) [Compound 93, N7-(6-aminopyrimidin-4-yl)-3-methyl-N5-[2-methyl-1-(trifluoromethyl)propyl)imidazo[4,5-b]pyridine-5,7-diamine]	77.4 nM	4.99 nM	–
